Test results from BindingDB's records for patent US11944616 (Institut National De La Sante Et De La Recherche Medicale …, 2024).

Target: Glutamate receptor ionotropic, NMDA 1 (Rattus norvegicus, UniProt P35439)
Assay: In Vitro Activity Assay
Source text: In Vitro Activity: Evaluation of NMDAR Blocking Activity Using Patch-ClampPrevious studies have shown that the NMDAR exists in the peripheral vasculature.All NMDAR subunits were examined by RT-PCR and sequencing in the peripheral endothelium and peripheral vascular smooth muscle cells.

CC[N@@+]1(CCO)[C@H]2Cc3ccccc3[C@@]1(C)c1ccccc12 [US11944616, Compound 27]
IC50: 360 nM
